# From patent publication US8940798B2, “Compounds useful for treating and/or preventing disease-associated bone loss” (Centre National de al Recherche Scientifique (CNRS), priority 2011, dated 2015)
# Assays:
# C57B1/6 mice = assay: Ovariectomy-induced bone loss model in C57B1/6 mice; type: in vivo, mouse; details: 5 days per week for 28 days
# Excerpt: After menopause, a decrease in bone density due to an increase in bone resorption, leading to osteoporosis, is observed. The decrease in estrogen secretion causes i) an increase in the osteoclast level due to the decrease in secretion of OPG, a RANKL inhibitor, by the osteoblasts and ii) an increase in the lifetime of the osteoclasts due to a decrease in the production of FasL, a promoter of apoptosis, by these cells. The ovariectomy model in the mouse is classically used as a model for this physiological disturbance (see FIG. 15).
# Protocol experiment 1: 8 C57B1/6 mice underwent ovariectomy (OVX) and 4 mice were operated on without ablation of the ovaries (SHAM). After this operation, 4 OVX mice received the C21 compound (test group), 5 mg/d/kg, 5 days per week for 28 days, as a retro-orbital sinus injection, and the other 4 OVX mice (control group) and the SHAM group received PBS.
# Protocol experiment 2: 16 C57B1/6 mice underwent ovariectomy (OVX) and 15 mice were operated on without ablation of the ovaries (SHAM). After this operation, 8 OVX mice received the C21 compound (test group), 15 mg/d/kg solubilized in 100 μl of 5% EtOH and 4% solutol, 5 days per week for 28 days, as an intraperitoneal injection, and the other 8 OVX mice (control group) and the SHAM group received 100 μl of 5% ethanol/4% solutol vehicle solution. […]
# osteoclasts (OCs) = assay: OC survival assay (number of OCs after 24-hour incubation); type: cell-based; details: number of OCs as % of DMSO control
# Excerpt: FIGS. 5A-5H: Inhibition of bone resorption by an inhibitor of Rac1 activation by Dock5. (FIG. 5A) Principle of the yeast exchange assay used to identify inhibitors of Dock5 exchange activity. Wild type Rac1 is fused to LexA DNA binding domain (LexA) and its effector Kinectin (Kin) to GAL4 activation domain (GAD). Expression of Dock5-DHR2 activates Rac1, which binds to kinectin, leading to the expression of his3 and then yeast […] for histidine. Inhibitors of Dock5-DHR2 revert Rac1 activation. (FIG. 5B) Growth curves of yeasts expressing Rac1 and Kinectin with (open triangles) and without (dots) Dock5-DHR2, in medium complemented (plain lines) or not (dotted lines) with histidine. […] (FIG. 5F) Number of OCs (OC) after a 24-hour incubation with the indicated concentrations of C21, expressed as a % of DMSO control (0 μM C21). […]
# Preparations were mounted in Mowiol 40-88 (Sigma) and imaged with Zeiss Axioimager Z2 microscope with Coolsnap HQ2 camera for fluorescence and Coolsnap color Cf camera using Zeiss 40× PLAN-NEOFLUAR 1.3 oil DIC or Zeiss 20× PLAN-APOCHROMAT 0.8 or Zeiss 10× EC PLAN-NEOFLUAR 0.3. […] OC circularity was measured using ImageJ. OCs were counted manually in 96-well plates stained to reveal DNA and TRAP activity, except in FIG. 5F where they were counted automatically using a Cellomics Arrayscan VTI (Thermo Scientific). […]
smiles,measurement,setting,value
"O=S(=O)(Nc1cc(Cl)cc(Cl)c1)c1ccccc1 [C21, N-(3,5-dichlorophenyl)benzenesulfonamide]","Bone mass (BV/TV, right distal femur, micro-tomography) of mice having undergone ovariectomy","C57B1/6 mice; experiment 1, 5 mg/d/kg, retro-orbital sinus injection",not reduced
same,Bone mass of OVX animals compared with SHAM animals,"C57B1/6 mice; experiment 2, 15 mg/d/kg, intraperitoneal injection",not significantly different
same,Concentrations provoking OC death,osteoclasts (OCs),above 25 μM
